# From the supplement of paper PMC10307832
# Assays:
# Experiment in all cases: relative viability (nuclei count vs DMSO), 5 days (fraction); higher = more cells survive
# H3255 = tested on: H3255
# Procedure, shortened: (§1)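 Lung cancer cell lines were seeded in 1536-well plates and dosed by pin tool the next day, with either a single drug or a fixed anchor-drug dose combined with five library-drug doses (not always all listed) spaced in √10 steps. Five days later, one step fixed the cells and stained their nuclei (final 0.05% Triton X-100, 1% formaldehyde, 1 ug/ml Hoechst), and nuclei were counted on 4× images. Relative viability is the nuclei count in treated wells divided by the count in vehicle wells, and each value is the median of duplicate plates.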
# COR-L 105 = tested on: COR-L 105
# Procedure, shortened: as §1
# SK-MES-1 = tested on: SK-MES-1
# Procedure, shortened: as §1
# EMC-BAC-2 = tested on: EMC-BAC-2
# Procedure, shortened: as §1
# NCI-H1734 = tested on: NCI-H1734
# Procedure, shortened: as §1
# A-427 = tested on: A-427
# Procedure, shortened: as §1
# NCI-H441 = tested on: NCI-H441
# Procedure, shortened: as §1
# NCI-H23 = tested on: NCI-H23
# Procedure, shortened: as §1
# PC-3 [JPC-3] = tested on: PC-3 [JPC-3]
# Procedure, shortened: as §1
# LOU-NH91 = tested on: LOU-NH91
# Procedure, shortened: as §1
# ChaGo-K-1 = tested on: ChaGo-K-1
# Procedure, shortened: as §1
# NCI-H1975 = tested on: NCI-H1975
# Procedure, shortened: as §1
# NCI-H1755 = tested on: NCI-H1755
# Procedure, shortened: as §1
# NCI-H2170 = tested on: NCI-H2170
# Procedure, shortened: as §1
# LK-2 = tested on: LK-2
# Procedure, shortened: as §1
# NCI-H596 = tested on: NCI-H596
# Procedure, shortened: as §1
# NCI-H1666 = tested on: NCI-H1666
# Procedure, shortened: as §1
# HCC-366 = tested on: HCC-366
# Procedure, shortened: as §1
# EKVX = tested on: EKVX
# Procedure, shortened: as §1
# NCI-H520 = tested on: NCI-H520
# Procedure, shortened: as §1
# NCI-H1563 = tested on: NCI-H1563
# Procedure, shortened: as §1
# SW 900 = tested on: SW 900
# Procedure, shortened: as §1
smiles,measurement,setting,value
O=c1cc(-c2cccc3c2Sc2ccccc2S3)oc(N2CCOCC2)c1 + COc1cccc2cc(-c3nc([C@H]4CC[C@H](C(=O)O)CC4)n4ncnc(N)c34)[nH]c12 [OSI-027] (partner 0.5 µM),relative viability,H3255; first compound 0.08 µM,0.61
same,relative viability,H3255; first compound 0.253 µM,0.604
same,relative viability,H3255; first compound 0.8 µM,0.541
same,relative viability,H3255; first compound 2.53 µM,0.569
same,relative viability,H3255; first compound 8 µM,0.671
same,relative viability,COR-L 105; first compound 0.08 µM,0.686
same,relative viability,COR-L 105; first compound 0.253 µM,0.707
same,relative viability,COR-L 105; first compound 0.8 µM,0.636
same,relative viability,COR-L 105; first compound 2.53 µM,0.686
same,relative viability,COR-L 105; first compound 8 µM,0.734
same,relative viability,SK-MES-1; first compound 0.08 µM,0.534
same,relative viability,SK-MES-1; first compound 0.253 µM,0.633
same,relative viability,SK-MES-1; first compound 0.8 µM,0.601
same,relative viability,SK-MES-1; first compound 2.53 µM,0.521
same,relative viability,SK-MES-1; first compound 8 µM,0.547
same,relative viability,EMC-BAC-2; first compound 0.08 µM,0.341
same,relative viability,EMC-BAC-2; first compound 0.253 µM,0.416
same,relative viability,EMC-BAC-2; first compound 0.8 µM,0.354
same,relative viability,EMC-BAC-2; first compound 2.53 µM,0.392
same,relative viability,EMC-BAC-2; first compound 8 µM,0.406
same,relative viability,NCI-H1734; first compound 0.08 µM,0.556
same,relative viability,NCI-H1734; first compound 0.253 µM,0.613
same,relative viability,NCI-H1734; first compound 0.8 µM,0.611
same,relative viability,NCI-H1734; first compound 8 µM,0.61
same,relative viability,A-427; first compound 0.08 µM,0.48
same,relative viability,A-427; first compound 0.253 µM,0.48
same,relative viability,A-427; first compound 0.8 µM,0.573
same,relative viability,A-427; first compound 8 µM,0.475
same,relative viability,NCI-H441; first compound 0.08 µM,0.5
same,relative viability,NCI-H441; first compound 0.253 µM,0.813
same,relative viability,NCI-H441; first compound 0.8 µM,0.671
same,relative viability,NCI-H441; first compound 2.53 µM,0.645
same,relative viability,NCI-H441; first compound 8 µM,0.761
same,relative viability,NCI-H23; first compound 0.08 µM,0.511
same,relative viability,NCI-H23; first compound 0.253 µM,0.739
same,relative viability,NCI-H23; first compound 0.8 µM,0.519
same,relative viability,NCI-H23; first compound 2.53 µM,0.54
same,relative viability,NCI-H23; first compound 8 µM,0.697
same,relative viability,PC-3 [JPC-3]; first compound 0.08 µM,0.763
same,relative viability,PC-3 [JPC-3]; first compound 0.253 µM,0.8
same,relative viability,PC-3 [JPC-3]; first compound 0.8 µM,0.783
same,relative viability,PC-3 [JPC-3]; first compound 2.53 µM,0.698
same,relative viability,PC-3 [JPC-3]; first compound 8 µM,0.787
same,relative viability,LOU-NH91; first compound 0.08 µM,0.687
same,relative viability,LOU-NH91; first compound 0.253 µM,0.736
same,relative viability,LOU-NH91; first compound 0.8 µM,0.594
same,relative viability,LOU-NH91; first compound 2.53 µM,0.628
same,relative viability,LOU-NH91; first compound 8 µM,0.758
same,relative viability,ChaGo-K-1; first compound 0.08 µM,0.524
same,relative viability,ChaGo-K-1; first compound 0.253 µM,0.615
same,relative viability,ChaGo-K-1; first compound 0.8 µM,0.479
same,relative viability,ChaGo-K-1; first compound 2.53 µM,0.385
same,relative viability,ChaGo-K-1; first compound 8 µM,0.63
same,relative viability,NCI-H1975; first compound 0.08 µM,0.74
same,relative viability,NCI-H1975; first compound 0.253 µM,0.993
same,relative viability,NCI-H1975; first compound 0.8 µM,0.793
same,relative viability,NCI-H1975; first compound 2.53 µM,0.587
same,relative viability,NCI-H1975; first compound 8 µM,0.503
same,relative viability,NCI-H1755; first compound 0.08 µM,0.71
same,relative viability,NCI-H1755; first compound 0.253 µM,0.794
same,relative viability,NCI-H1755; first compound 0.8 µM,0.682
same,relative viability,NCI-H1755; first compound 2.53 µM,0.553
same,relative viability,NCI-H1755; first compound 8 µM,0.772
same,relative viability,NCI-H2170; first compound 0.08 µM,0.78
same,relative viability,NCI-H2170; first compound 0.253 µM,0.801
same,relative viability,NCI-H2170; first compound 0.8 µM,0.727
same,relative viability,NCI-H2170; first compound 2.53 µM,0.508
same,relative viability,NCI-H2170; first compound 8 µM,0.717
same,relative viability,LK-2; first compound 0.08 µM,0.174
same,relative viability,LK-2; first compound 0.253 µM,0.189
same,relative viability,LK-2; first compound 0.8 µM,0.188
same,relative viability,LK-2; first compound 2.53 µM,0.175
same,relative viability,LK-2; first compound 8 µM,0.176
same,relative viability,NCI-H596; first compound 0.08 µM,0.69
same,relative viability,NCI-H596; first compound 0.253 µM,0.803
same,relative viability,NCI-H596; first compound 0.8 µM,0.695
same,relative viability,NCI-H596; first compound 2.53 µM,0.683
same,relative viability,NCI-H596; first compound 8 µM,0.662
same,relative viability,NCI-H1666; first compound 0.08 µM,0.838
same,relative viability,NCI-H1666; first compound 0.253 µM,1.06
same,relative viability,NCI-H1666; first compound 0.8 µM,0.923
same,relative viability,NCI-H1666; first compound 2.53 µM,0.832
same,relative viability,NCI-H1666; first compound 8 µM,0.885
same,relative viability,HCC-366; first compound 0.08 µM,0.89
same,relative viability,HCC-366; first compound 0.253 µM,1.2
same,relative viability,HCC-366; first compound 0.8 µM,0.692
same,relative viability,HCC-366; first compound 2.53 µM,0.723
same,relative viability,HCC-366; first compound 8 µM,0.775
same,relative viability,EKVX; first compound 0.08 µM,0.722
same,relative viability,EKVX; first compound 0.253 µM,0.812
same,relative viability,EKVX; first compound 0.8 µM,0.678
same,relative viability,EKVX; first compound 2.53 µM,0.715
same,relative viability,EKVX; first compound 8 µM,0.67
same,relative viability,NCI-H520; first compound 0.08 µM,0.297
same,relative viability,NCI-H520; first compound 0.253 µM,0.257
same,relative viability,NCI-H520; first compound 0.8 µM,0.297
same,relative viability,NCI-H520; first compound 2.53 µM,0.216
same,relative viability,NCI-H520; first compound 8 µM,0.296
same,relative viability,NCI-H1563; first compound 0.08 µM,0.728
same,relative viability,NCI-H1563; first compound 0.253 µM,0.756
same,relative viability,NCI-H1563; first compound 0.8 µM,0.77
same,relative viability,NCI-H1563; first compound 2.53 µM,0.717
same,relative viability,NCI-H1563; first compound 8 µM,0.676
same,relative viability,SW 900; first compound 0.08 µM,0.573
same,relative viability,SW 900; first compound 0.253 µM,0.697
same,relative viability,SW 900; first compound 0.8 µM,0.459
same,relative viability,SW 900; first compound 2.53 µM,0.494
same,relative viability,SW 900; first compound 8 µM,0.596
